Patent US10681909B2, “Herbicidal triazoles” (FMC Corporation, priority 2014, dated 2020)

Tests used:
barnyardgrass [1] = experiment: Test A preemergence; type: in vivo, Echinochloa crus-galli; conditions: Echinochloa crus-galli, pre-emergence, 240 h, 0 to 100 scale (0 no effect, 100 complete control), read-out: Plant response rating, Barnyardgrass
Procedure, shortened: (§1)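 Test chemicals in a non-phytotoxic solvent with surfactant were applied as a directed soil spray preemergence to seeds sown in loam/sand. Postemergence sprays went to plants 2–10 cm tall at the one- to two-leaf stage. A dash means no result.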

foxtail, giant [2] = experiment: Test A preemergence; type: in vivo, Setaria faberii; conditions: Setaria faberi, pre-emergence, 240 h, 0 to 100 scale (0 no effect, 100 complete control), read-out: Plant response rating, Foxtail, Giant
Procedure, shortened: as §1

barnyardgrass [3] = experiment: Test A postemergence; type: in vivo, Echinochloa crus-galli; conditions: Echinochloa crus-galli, post-emergence, 240 h, 0 to 100 scale (0 no effect, 100 complete control), approx. 10 d, read-out: Plant response rating, Barnyardgrass
Procedure, shortened: as §1

foxtail, giant [4] = experiment: Test A postemergence; type: in vivo, Setaria faberii; conditions: Setaria faberi, post-emergence, 240 h, 0 to 100 scale (0 no effect, 100 complete control), approx. 10 d, read-out: Plant response rating, Foxtail, Giant
Procedure, shortened: as §1

pigweed = experiment: Test A postemergence; type: in vivo, Amaranthus retroflexus; conditions: Amaranthus retroflexus, post-emergence, 240 h, 0 to 100 scale (0 no effect, 100 complete control), approx. 10 d, read-out: Plant response rating, Pigweed
Procedure, shortened: as §1

wheat = experiment: Test A postemergence; type: in vivo, Triticum aestivum; conditions: Triticum aestivum, post-emergence, 240 h, 0 to 100 scale (0 no effect, 100 complete control), approx. 10 d, read-out: Plant response rating, Wheat
Procedure, shortened: as §1

sedge, umbrella = experiment: Test B flooded paddy test; type: in vivo, Cyperus difformis; conditions: Cyperus difformis, 360 h, 125 g ai/ha, applied to paddy water at 2-leaf stage, visual rating after 13 to 15 d, scale 0 (no effect) to 100 (complete control), read-out: Plant response rating, Sedge, Umbrella, Flood
Procedure, shortened: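 Pots were flooded to 3 cm above the soil at treatment, and compounds were applied directly into the paddy water. That depth was held throughout. After 13 to 15 d in a greenhouse, plants were rated visually against untreated controls.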

blackgrass = experiment: Test C postemergence; type: in vivo, Alopecurus myosuroides
Procedure, shortened: (§2)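 Surfactant-containing, non-phytotoxic solvent formulations of each compound were applied either preemergence to seeds in a loam soil–sand blend or postemergence to plants 2 to 18 cm tall (1- to 4-leaf stage). Postemergence plants were grown in peat moss–vermiculite medium.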

ryegrass, Italian = experiment: Test C postemergence; type: in vivo, Lolium multiflorum
Procedure, shortened: as §2

galium = experiment: Test C postemergence; type: in vivo, Galium aparine
Procedure, shortened: as §2

corn = experiment: Test C postemergence; type: in vivo, Zea mays
Procedure, shortened: as §2

crabgrass, large = experiment: Test C postemergence; type: in vivo, Digitaria sanguinalis
Procedure, shortened: as §2

johnsongrass = experiment: Test C postemergence; type: in vivo, Sorghum halepense
Procedure, shortened: as §2

morningglory = experiment: Test C postemergence; type: in vivo, Ipomoea coccinea
Procedure, shortened: as §2

nutsedge, yellow = experiment: Test C postemergence; type: in vivo, Cyperus esculentus
Procedure, shortened: as §2

barnyardgrass [5] = experiment: Test C postemergence; type: in vivo, Echinochloa crus-galli
Procedure, shortened: as §2

oilseed rape = experiment: Test C postemergence; type: in vivo, Brassica napus
Procedure, shortened: as §2

waterhemp = experiment: Test C postemergence; type: in vivo, Amaranthus rudis
Procedure, shortened: as §2

velvetleaf = experiment: Test C postemergence; type: in vivo, Abutilon theophrasti
Procedure, shortened: as §2

kochia = experiment: Test C postemergence; type: in vivo, Kochia scoparia
Procedure, shortened: as §2

Structure (SMILES): CCOc1nc(-c2ccc(F)cc2)nn1Cc1ccnc(C(F)(F)F)c1 [Compound 8, 4-[[5-ethoxy-3-(4-fluorophenyl)-1H-1,2,4-triazol-1-yl]methyl]-2-(trifluoromethyl)pyridine]
- pest or weed control at 125 g/ha (barnyardgrass [1]; 125 g ai/ha): 100%
- pest or weed control at 500 g/ha (barnyardgrass [1]; 500 g ai/ha, approx. 10 d): 100%
- pest or weed control at 125 g/ha (foxtail, giant [2]; 125 g ai/ha): 100%
- pest or weed control at 500 g/ha (foxtail, giant [2]; 500 g ai/ha, approx. 10 d): 100%
- pest or weed control at 125 g/ha (barnyardgrass [3]; 125 g ai/ha): 100%
- pest or weed control at 500 g/ha (barnyardgrass [3]; 500 g ai/ha): 100%
- pest or weed control at 125 g/ha (foxtail, giant [4]; 125 g ai/ha): 100%
- pest or weed control at 500 g/ha (foxtail, giant [4]; 500 g ai/ha): 100%
- pest or weed control at 125 g/ha (pigweed; 125 g ai/ha): 100%
- pest or weed control at 500 g/ha (pigweed; 500 g ai/ha): 100%
- plant injury at 125 g/ha (wheat; 125 g ai/ha): 40%
- plant injury at 500 g/ha (wheat; 500 g ai/ha): 100%
- pest or weed control at 125 g/ha (sedge, umbrella): 90%
- Plant response rating (scale of 0 to 100 where 0 is no effect and 100 is complete control) (blackgrass; 31 g ai/ha): 50
- Plant response rating (scale of 0 to 100 where 0 is no effect and 100 is complete control) (blackgrass; 62 g ai/ha): 40
- Plant response rating (scale of 0 to 100 where 0 is no effect and 100 is complete control) (blackgrass; 125 g ai/ha): 55
- Plant response rating (scale of 0 to 100 where 0 is no effect and 100 is complete control) (blackgrass; 250 g ai/ha): 75
- Plant response rating (scale of 0 to 100 where 0 is no effect and 100 is complete control) (ryegrass, Italian; 31 g ai/ha): 30
- Plant response rating (scale of 0 to 100 where 0 is no effect and 100 is complete control) (ryegrass, Italian; 62 g ai/ha): 35
- Plant response rating (scale of 0 to 100 where 0 is no effect and 100 is complete control) (ryegrass, Italian; 125 g ai/ha): 35
- Plant response rating (scale of 0 to 100 where 0 is no effect and 100 is complete control) (ryegrass, Italian; 250 g ai/ha): 50
- Plant response rating (scale of 0 to 100 where 0 is no effect and 100 is complete control) (galium; 31 g ai/ha): 80
- Plant response rating (scale of 0 to 100 where 0 is no effect and 100 is complete control) (galium; 62 g ai/ha): 95
- Plant response rating (scale of 0 to 100 where 0 is no effect and 100 is complete control) (galium; 125 g ai/ha): 95
- Plant response rating (scale of 0 to 100 where 0 is no effect and 100 is complete control) (galium; 250 g ai/ha): 95
- Plant response rating (scale of 0 to 100 where 0 is no effect and 100 is complete control) (corn; 31 g ai/ha): 10
- Plant response rating (scale of 0 to 100 where 0 is no effect and 100 is complete control) (corn; 62 g ai/ha): 15
- Plant response rating (scale of 0 to 100 where 0 is no effect and 100 is complete control) (corn; 125 g ai/ha): 25
- Plant response rating (scale of 0 to 100 where 0 is no effect and 100 is complete control) (corn; 250 g ai/ha): 40
- Plant response rating (scale of 0 to 100 where 0 is no effect and 100 is complete control) (crabgrass, large; 31 g ai/ha): 20
- Plant response rating (scale of 0 to 100 where 0 is no effect and 100 is complete control) (crabgrass, large; 62 g ai/ha): 35
- Plant response rating (scale of 0 to 100 where 0 is no effect and 100 is complete control) (crabgrass, large; 125 g ai/ha): 70
- Plant response rating (scale of 0 to 100 where 0 is no effect and 100 is complete control) (crabgrass, large; 250 g ai/ha): 85
- Plant response rating (scale of 0 to 100 where 0 is no effect and 100 is complete control) (johnsongrass; 31 g ai/ha): 5
- Plant response rating (scale of 0 to 100 where 0 is no effect and 100 is complete control) (johnsongrass; 62 g ai/ha): 35
- Plant response rating (scale of 0 to 100 where 0 is no effect and 100 is complete control) (johnsongrass; 125 g ai/ha): 30
- Plant response rating (scale of 0 to 100 where 0 is no effect and 100 is complete control) (johnsongrass; 250 g ai/ha): 40
- Plant response rating (scale of 0 to 100 where 0 is no effect and 100 is complete control) (morningglory; 31 g ai/ha): 85
- Plant response rating (scale of 0 to 100 where 0 is no effect and 100 is complete control) (morningglory; 62 g ai/ha): 98
- Plant response rating (scale of 0 to 100 where 0 is no effect and 100 is complete control) (morningglory; 125 g ai/ha): 80
- Plant response rating (scale of 0 to 100 where 0 is no effect and 100 is complete control) (morningglory; 250 g ai/ha): 100
- Plant response rating (scale of 0 to 100 where 0 is no effect and 100 is complete control) (nutsedge, yellow; 31 g ai/ha): 5
- Plant response rating (scale of 0 to 100 where 0 is no effect and 100 is complete control) (nutsedge, yellow; 62 g ai/ha): 10
- Plant response rating (scale of 0 to 100 where 0 is no effect and 100 is complete control) (nutsedge, yellow; 125 g ai/ha): 10
- Plant response rating (scale of 0 to 100 where 0 is no effect and 100 is complete control) (nutsedge, yellow; 250 g ai/ha): 10
- Plant response rating (scale of 0 to 100 where 0 is no effect and 100 is complete control) (barnyardgrass [5]; 31 g ai/ha): 10
- Plant response rating (scale of 0 to 100 where 0 is no effect and 100 is complete control) (barnyardgrass [5]; 62 g ai/ha): 20
- Plant response rating (scale of 0 to 100 where 0 is no effect and 100 is complete control) (barnyardgrass [5]; 125 g ai/ha): 40
- Plant response rating (scale of 0 to 100 where 0 is no effect and 100 is complete control) (barnyardgrass [5]; 250 g ai/ha): 75
- Plant response rating (scale of 0 to 100 where 0 is no effect and 100 is complete control) (oilseed rape; Oilsee Rape, 250 g ai/ha): 95
- Plant response rating (scale of 0 to 100 where 0 is no effect and 100 is complete control) (oilseed rape; Oilseed Rape, 31 g ai/ha): 90
- Plant response rating (scale of 0 to 100 where 0 is no effect and 100 is complete control) (oilseed rape; Oilseed Rape, 62 g ai/ha): 95
- Plant response rating (scale of 0 to 100 where 0 is no effect and 100 is complete control) (oilseed rape; Oilseed Rape, 125 g ai/ha): 95
- Plant response rating (scale of 0 to 100 where 0 is no effect and 100 is complete control) (waterhemp; 31 g ai/ha): 95
- Plant response rating (scale of 0 to 100 where 0 is no effect and 100 is complete control) (waterhemp; 62 g ai/ha): 98
- Plant response rating (scale of 0 to 100 where 0 is no effect and 100 is complete control) (waterhemp; 125 g ai/ha): 95
- Plant response rating (scale of 0 to 100 where 0 is no effect and 100 is complete control) (waterhemp; 250 g ai/ha): 98
- Plant response rating (scale of 0 to 100 where 0 is no effect and 100 is complete control) (velvetleaf; 31 g ai/ha): 50
- Plant response rating (scale of 0 to 100 where 0 is no effect and 100 is complete control) (velvetleaf; 62 g ai/ha): 70
- Plant response rating (scale of 0 to 100 where 0 is no effect and 100 is complete control) (velvetleaf; 125 g ai/ha): 90
- Plant response rating (scale of 0 to 100 where 0 is no effect and 100 is complete control) (velvetleaf; 250 g ai/ha): 90
- Plant response rating (scale of 0 to 100 where 0 is no effect and 100 is complete control) (kochia; 31 g ai/ha): 95
- Plant response rating (scale of 0 to 100 where 0 is no effect and 100 is complete control) (kochia; 62 g ai/ha): 95
- Plant response rating (scale of 0 to 100 where 0 is no effect and 100 is complete control) (kochia; 125 g ai/ha): 95
- Plant response rating (scale of 0 to 100 where 0 is no effect and 100 is complete control) (kochia; 250 g ai/ha): 95
